# Laboratory results: US5302514A, “Maltooligoside derivative, reagent for determining α-amylase activity containing the same as effective ingredient and a process for determining the α-amylase activity using same” (Kikkoman Corporation, priority 1991, dated 1994)
# What was measured:
# [1] = biological target: T1, amylase derived from human saliva (human S type α-amylase) (Homo sapiens, UniProt P0DUB6); test: Km value, S type α-amylase; format: biochemical; details: pH 7.0, 37° C., Lineweaver-Burk
# T1 sequence (P0DUB6 16-511): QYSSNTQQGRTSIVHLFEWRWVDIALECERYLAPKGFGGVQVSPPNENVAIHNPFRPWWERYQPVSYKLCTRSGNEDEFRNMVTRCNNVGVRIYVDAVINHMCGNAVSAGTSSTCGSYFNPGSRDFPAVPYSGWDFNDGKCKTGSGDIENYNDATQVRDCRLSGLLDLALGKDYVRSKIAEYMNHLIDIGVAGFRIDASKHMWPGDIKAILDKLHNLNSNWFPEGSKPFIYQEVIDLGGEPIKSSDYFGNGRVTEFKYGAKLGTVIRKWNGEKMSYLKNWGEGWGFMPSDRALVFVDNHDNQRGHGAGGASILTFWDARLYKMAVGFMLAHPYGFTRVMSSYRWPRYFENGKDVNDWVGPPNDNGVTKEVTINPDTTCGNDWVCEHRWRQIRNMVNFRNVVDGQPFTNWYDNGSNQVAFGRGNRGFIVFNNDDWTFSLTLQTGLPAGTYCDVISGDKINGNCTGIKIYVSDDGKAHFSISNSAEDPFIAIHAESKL
# Procedure: Km values, hydrolysis rate, water solubility and the patterns of action in the hydrolysis of the present substrates 2-chloro-4-nitrophenyl 5^5 -eno-4^5 -O-mesyl-β-D-maltopentaoside (EMG5CNP) and 2-chloro-4-nitrophenyl 6^5 -azido-6^5 -deoxy- β-D-maltopentaoside (ADG5CNP) obtained in Example were examined in accordance with the following methods.
# Substrate solutions were prepared by dissolving in a 50 mM phosphate buffer (pH=7.0) containing 40 mM NaCl and 2 mM MgCl2 a substrate to 0.16, 0.32, 0.48, 0.64, 0.80 and 0.96 mM, respectively.
# The Km value of each substrate solution was obtained by measuring the hydrolysis rate of the substrate in accordance with the same procedure as in the measurement of hydrolysis rate described below and roughly calculating the Lineweaver-Burk's reciprocal plot (see "Tanpaku-Kohso no Jikken-hou", ed. Takeichi Horio & Jinpei Yamashita, Nanko-do, 1981).
# Each substrate was dissolved in a 50 mM phosphate buffer (pH=7.0) containing 40 mM NaCl and 2 mM MgCl2 to make three substrate solutions in a concentration of 0.8-1.6 times and three substrate solutions in a concentration of 1.6-3.2 times per the roughly calculated Km value in the aforementioned paragraph (ii).
# The Km value was calculated in accordance with the same procedure as in the aforementioned paragraph (ii).
# (§1) S: amylase derived from human saliva.
# [2] = biological target: T1, amylase derived from human saliva (human S type α-amylase); test: Patterns of action (hydrolyzed product by HPLC), S type α-amylase; format: biochemical; details: 0.5 mM substrate, 37° C., 20 minutes
# Procedure: (§2) Commercially available human P type and S type α-amylase solutions having a concentration of ca. 500 IU/l were prepared in the same manner as in the step (3) of Example 5.
# (§3) To 1.0 ml of the substrate solution was added 100 μl of the α-amylase solution prepared in the paragraph (iii) of the aforementioned hydrolysis rate, and the mixture, after stirred sufficiently, was subjected to reaction at 37° C. for 20 minutes. The hydrolyzed product was determined quantitatively by the high performance liquid chromatography of the reaction mixture.
# as §1
# [3] = Solubility in water; format: physicochemical; details: 20 g of substrate added to 100 ml of water
# Procedure: To 100 ml of water was added 20 g of a substrate, and the dissolution state was observed.
# [4] = biological target: T2, amylase derived from human pancreatic juice (human P type α-amylase) (Homo sapiens, UniProt P04746); test: Patterns of action (hydrolyzed product by HPLC), P type α-amylase; format: biochemical; details: 0.5 mM substrate, 37° C., 20 minutes
# T2 sequence (P04746 16-511): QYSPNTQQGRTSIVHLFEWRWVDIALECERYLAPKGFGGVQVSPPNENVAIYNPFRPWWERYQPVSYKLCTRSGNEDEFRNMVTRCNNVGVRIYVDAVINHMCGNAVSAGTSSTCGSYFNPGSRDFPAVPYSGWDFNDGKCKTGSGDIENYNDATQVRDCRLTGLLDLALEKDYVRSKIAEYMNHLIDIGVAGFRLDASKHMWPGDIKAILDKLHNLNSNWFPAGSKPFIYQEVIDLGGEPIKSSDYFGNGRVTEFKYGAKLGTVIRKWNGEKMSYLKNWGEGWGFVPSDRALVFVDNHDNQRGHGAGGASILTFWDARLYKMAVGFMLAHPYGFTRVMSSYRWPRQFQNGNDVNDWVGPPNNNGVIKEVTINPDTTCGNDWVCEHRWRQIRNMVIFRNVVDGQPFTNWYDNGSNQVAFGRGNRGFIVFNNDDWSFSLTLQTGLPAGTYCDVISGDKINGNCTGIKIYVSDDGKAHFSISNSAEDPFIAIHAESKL
# Procedure: as §2, §3
# P: amylase derived from human pancreatic juice, […]
compound,measurement,setting,value
"C=C1O[C@H](O[C@H]2[C@H](O)[C@@H](O)[C@@H](O[C@H]3[C@H](O)[C@@H](O)[C@@H](O[C@H]4[C@H](O)[C@@H](O)[C@@H](O[C@H]5[C@H](O)[C@@H](O)[C@H](Oc6ccc([N+](=O)[O-])cc6Cl)O[C@@H]5CO)O[C@@H]4CO)O[C@@H]3CO)O[C@@H]2CO)[C@H](O)[C@@H](O)[C@@H]1OS(C)(=O)=O [EMG5CNP, 2-chloro-4-nitrophenyl 5^5-eno-4^5 -O-mesyl-β-D-maltopentaoside]",Km,[1],140 µM
same,"Patterns of action, hydrolyzed product G2CNP",[2],97 mol %
same,"Patterns of action, hydrolyzed product G3CNP",[2],0 mol %
same,"Patterns of action, hydrolyzed product G4CNP",[2],0 mol %
same,"Patterns of action, hydrolyzed product GCNP",[2],3 mol %
same,Solubility in water,[3],Good
same,"Patterns of action, hydrolyzed product G2CNP",[4],97 mol %
same,"Patterns of action, hydrolyzed product G3CNP",[4],0 mol %
same,"Patterns of action, hydrolyzed product G4CNP",[4],0 mol %
same,"Patterns of action, hydrolyzed product GCNP",[4],3 mol %
"[N-]=[N+]=NC[C@H]1O[C@H](O[C@H]2[C@H](O)[C@@H](O)[C@@H](O[C@H]3[C@H](O)[C@@H](O)[C@@H](O[C@H]4[C@H](O)[C@@H](O)[C@@H](O[C@H]5[C@H](O)[C@@H](O)[C@H](Oc6ccc([N+](=O)[O-])cc6Cl)O[C@@H]5CO)O[C@@H]4CO)O[C@@H]3CO)O[C@@H]2CO)[C@H](O)[C@@H](O)[C@@H]1O [ADG5CNP, 2-chloro-4-nitrophenyl 6^5-azido-6^5-deoxy-β-D-maltopentaoside]",Km,[1],260 µM
same,"Patterns of action, hydrolyzed product G2CNP",[2],100 mol %
same,"Patterns of action, hydrolyzed product G3CNP",[2],0 mol %
same,"Patterns of action, hydrolyzed product G4CNP",[2],0 mol %
same,"Patterns of action, hydrolyzed product GCNP",[2],0 mol %
same,Solubility in water,[3],Good
same,"Patterns of action, hydrolyzed product G2CNP",[4],97 mol %
same,"Patterns of action, hydrolyzed product G3CNP",[4],3 mol %
same,"Patterns of action, hydrolyzed product G4CNP",[4],0 mol %
same,"Patterns of action, hydrolyzed product GCNP",[4],0 mol %
